In patent US8653112B2, “Substituted pyrazoles as estrogen receptor ligands” (Karo Bio AB, priority 2009, dated 2014):

The compounds below were run against T1, human ERβ (ERβ-LBD) (Homo sapiens, UniProt Q92731) (assay: Binding assay 1: estrogen receptor binding assay (SPA, 3H-E2 displacement), ERβ). Conditions: displacement of 3H-E2, read-out: binding affinity to the estrogen receptor β-subtype, IC50.
T1 construct: ERβ (ERβ-LBD, pET-N-AT #1, aa 255-530); biotinylation tag (in vivo biotinylated, pBirA co-expression); made in house; host or cells: E. coli BL21 (DE3) pBirA
Method: Binding Assay 1: Estrogen Receptor Binding Assay
The estrogen receptor ligand binding assays are designed as scintillation proximity assays (SPA), employing the use of tritiated estradiol (^3H-E2) and recombinant expressed biotinylated estrogen receptor binding domains. The binding domains of human ERα (ERα-LBD, pET-N-AT #1, aa 301-595) and ERβ (ERβ-LBD, pET-N-AT #1, aa 255-530) proteins are produced in E. coli ((BL21, (DE3), pBirA)) at 22 C in 2×LB medium supplemented with 50 uM biotin. After 3 h of IPTG induction (0.55 mM), cells are harvested by centrifugation at 7300×g for 15 min and cell pellets stored frozen in −20C. Extraction of ERα and ERβ are performed using 5 g of cells suspended in 50 mL of extraction buffer (50 mM Tris, pH 8.0, 100 mM KCl, 4 mM EDTA, 4 mM DDT and 0.1 mM PMSF). The cell suspension is run twice through a Microfluidizer M-110L (Microfluidics) and centrifuged at 15,000×g for 60 min. The supernatant is aliquoted and stored in −70C.
Dilute ERαLBD or ERβ-LBD extracts in assay buffer (18 mM K2HPO4, 2 mM KH2PO4, 20 mM NasMoO4, 1 mM EDTA, 1 mM TCEP) 1:676 and 1:517 for alpha and beta respectively. The diluted receptor concentrations should be 900 fmol/L. Preincubate the extracts with streptavidin coated polyvinyltoluene SPA beads (RPNQ0007, GE Healthcare) at a concentration of 0.43 mg/mL for 1 hr at room temperature.
Test compounds are evaluated over a range of concentrations from 157 μM to 37.5 pM. The test compound stock solutions should be made in 100% DMSO at 5× of the final concentration desired for testing in the assay. The amount of DMSO in the test wells of the 384 well plate will be 20%. Add 18 μl aliquots of test compounds to the assay plates followed by 35 μl of the preincubated receptor/SPA bead mix and finally add 35 μl of 3 nM ^3H-E2. Cover the plates with a plastic sealer, centrifuge for 1 minute at 1000 rpm and equilibrate over night on a shaker at room temperature. The following morning, centrifuge the plates 5 minutes at 2000 rpm and measure on a plate scintillation counter e.g. a PerkinElmer Microbeta 1450 Trilux.
For compounds able to displace 3[H]-E2 from the receptor an IC50-value (the concentration required to inhibit 50% of the binding of 3[H]-E2) is determined by a non-linear four parameter logistic model; b=((bmax−bmin)/(1+(1/IC50)S))+bmin I is added concentration of binding inhibitor, IC50 is the concentration of inhibitor at half maximal binding and S is a slope factor. The Microbeta-instrument generates the mean cpm (counts per minute) value/minute and corrects for individual variations between the detectors thus generating corrected cpm values.

T1 sequence (Q92731 255-530): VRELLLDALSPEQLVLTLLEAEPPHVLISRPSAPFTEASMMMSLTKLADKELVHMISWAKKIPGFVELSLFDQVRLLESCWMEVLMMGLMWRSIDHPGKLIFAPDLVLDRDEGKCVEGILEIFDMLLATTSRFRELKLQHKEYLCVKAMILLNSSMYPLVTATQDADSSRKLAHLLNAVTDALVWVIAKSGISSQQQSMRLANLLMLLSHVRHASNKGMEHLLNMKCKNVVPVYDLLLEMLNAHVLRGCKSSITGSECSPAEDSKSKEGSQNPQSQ

Row | SMILES | IC50 [nM]
1 | Cc1noc(C)c1-c1c(C=NO)c(C(C)C)nn1-c1ccc(O)cc1 (single isomer, unassigned) [Example 18, 5-(3,5-dimethylisoxazol-4-yl)-1-(4-hydroxyphenyl)-3-isopropyl-1H-pyrazole-4-carbaldehyde oxime] | 1 to 100
2 | Cn1nc(-c2ccc(O)cc2)c(-c2c(F)cccc2F)c1C=NO (single isomer, unassigned) [Example 44, 4-(2,6-difluorophenyl)-3-(4-hydroxyphenyl)-1-methyl-1H-pyrazole-5-carbaldehyde oxime] | 1 to 100
3 | Cn1nc(-c2ccc(O)cc2)c(-c2c(Cl)cccc2Cl)c1C=NO (single isomer, unassigned) [Example 45, 4-(2,6-dichlorophenyl)-3-(4-hydroxyphenyl)-1-methyl-1H-pyrazole-5-carbaldehyde oxime] | 1 to 100
4 | Cc1cc(O)ccc1-c1nn(C)c(/C=N/O)c1-c1c(C)noc1C (single isomer, unassigned) [Example 63, (E)-4-(3,5-dimethylisoxazol-4-yl)-3-(4-hydroxy-2-methylphenyl)-1-methyl-1H-pyrazole-5-carbaldehyde oxime] | 1 to 100

The next lines start with the values.

Row | IC50 [nM] | SMILES
5 | 1 to 100 | Cc1noc(C)c1-c1c(-c2ccc(O)cc2)nn(C)c1C=NO (single isomer, unassigned) [Example 12, 4-(3,5-dimethylisoxazol-4-yl)-3-(4-hydroxyphenyl)-1-methyl-1H-pyrazole-5-carbaldehyde oxime]
6 | 1 to 100 | CCc1nn(-c2ccc(O)cc2F)c(-c2c(C)noc2C)c1C=NO (single isomer, unassigned) [Example 27, 5-(3,5-dimethylisoxazol-4-yl)-3-ethyl-1-(2-fluoro-4-hydroxyphenyl)-1H-pyrazole-4-carbaldehyde oxime]
7 | 1 to 100 | Cc1noc(C)c1-c1c(-c2ccc(O)cc2F)nn(C)c1C=NO (single isomer, unassigned) [Example 48, 4-(3,5-dimethylisoxazol-4-yl)-3-(2-fluoro-4-hydroxyphenyl)-1-methyl-1H-pyrazole-5-carbaldehyde oxime]
